This is an account of results in patent US10195267B2, “Vaccination strategy” (priority 2013, dated 2019).

The subject of data set [1] is lymphocytic choriomeningitis virus (LCMV). It is filed as in vivo, mice.
Data set [2] relates to AdHBV (Hepatitis B Virus). The data set can be described thus: Chronic AdHBV infection, HBc-DNA vaccination followed by TLR9-L at d12. It is filed as in vivo, mice. From the text:
(a) Mice with chronic AdHBV-infection after 1×10^8 ifu AdHBV-infection. Time course of serum ALT following HBc-DNA vaccination (d0) and TLR9-L or CTRL treatment (d12). OVA-DNA vaccination as control. (n=5 per group). (b-f) At d15 after vaccination, (b) immunohistochemistry for CD11 b and CD8 in the liver as described in (a) at d15 after vaccination; (c) increase of HBc93-100-specific CTLs in spleen and liver detected by dextramer-staining. (n=3 per group), ND, not detectable; (d) IFNγ-producing HBc93-100-specific CTLs isolated from livers of mice after HBc-peptide-specific restimulation ex vivo; (e) total numbers of IFNγ-producing HBc93-100-specific CTLs after peptide-specific restimulation ex vivo per gram liver (n=3, per group); (f) PD-1 expression levels on HBc93-100-specific CTLs directly ex vivo. (g) Serum HBeAg levels from mice as described in (a). (h) Immunohistochemical detection and (i) quantification of HBcore-Ag-positive hepatocytes at d42 after vaccination. HPF, high power field (magnification, 100×). *P<0.05, **P<0.01, ***P<0.001 (paired Student's t-test). Data are representative of three experiments (a, c, d, e, f, g) or two experiments (b, h, i) (a, c, e, i; error bars, s.d.).
C57BL/6J mice were infected with 1×10^8 ifu AdHBV intravenously leading to chronic AdHBV infection, as reported previously (Huang et al. Gastroenterology 2012; 142:1447-50). DNA immunization was performed as described (Huang et al. Gastroenterology 2012; 142:1447-50). After immunization, HBeAg and serum ALT (alanine aminotransferase) activity measured using GPT strips on a REFLOVET™. Plus reader (Roche) were checked at indicated time points. Livers were collected for immunohistochemical analysis. Analysis of CTL number and function ex vivo was done as described previously (Huang et al. Gastroenterology 2012; 142:1447-50).
In this model, therapeutic DNA-vaccination leads to a weak increase in circulating HBV-specific CTLs but fails to control chronic_AdHBV infection. Mice with chronic AdHBV infection were subjected to DNA-vaccination with plasmids coding for the HBV core (HBc) antigen or OVA and received TLR9-L treatment 12 d later.

For data set [3], the system named is CD8+ T cells (TCM, TEM). The data set can be described thus: Proliferation of adoptively transferred TCM and TEM in the liver (BrdU incorporation, 7-AAD). The format is in vivo, mice. Conditions: 3 days after intravenous TLR9-ligand. For orientation: Uptake of a labelled nucleoside into DNA is a usual measure of proliferation.
Data set [4] relates to CTLs. The data set can be described thus: Local CTL expansion in iMATEs in the liver after systemic TLR9-L application. The format is in vivo, mice. From the text: We discovered that CTL activation by simultaneous stimulation through the TCR, CD28 and IL-12 in vitro, together with systemic application of TLR9-L led to a 50-fold expansion of CTLs locally in the liver. Myeloid cell aggregates, herewith termed iMATEs, which formed in the liver upon TLR9-signaling, facilitate massive CTL expansion, which contributes to anti-viral immunity and overcomes chronic viral infection in mice.

Data set [5] deals with OT-I CTLs. The data set can be described thus: Hepatic OT-I CTL expansion and iMATE formation in AdLGO- or AdLG-infected mice.
Data set [6] has as its system recombinant adenovirus expressing OVA and luciferase (AdLOG). The data set can be described thus: Acute adenoviral infection, in vivo bioluminescence as indicator of antiviral CTL activity in the liver.
Setting [7] is: TLR9-L at d12 after HBcore-DNA vaccination.

Oligonucleotides are written 5' to 3', each unit as a sugar letter and its base; * is a phosphorothioate linkage, no mark a phosphodiester; rarer units and linkages stand in square brackets, end groups in braces. Plain capitals give the bases only. d = 2'-deoxy (DNA)

On to “5′-S-TCCATGACGTTCCTGATGCT-3′ (DNA dT*dC*dC*dA*dT*dG*dA*dC*dG*dT*dT*dC*dC*dT*dG*dA*dT*dG*dC*dT) [TLR9-L]”, for which, in data set [1] (LCMV-specific CTL transfer (10^6/mouse) together with TLR9-L at d0, d7 and d10), the “numbers of LCMV gp33-specific CTLs in the liver” value is “significant increase”. In data set [1] (LCMV-specific CTL transfer together with TLR9-L injection), the “LCMV titers in serum and liver” value is reported as “dropped to background levels”. In addition, the “numbers of LCMV-specific CTLs” value in data set [1] (TLR9-L application alone, d14 after the first transfer) is “did not lead to significant increases”. Moreover, the “iMATE induction in livers” value in data set [1] (chronic LCMV-infected mice) is reported as “can be induced”. The “serum ALT” value in data set [2] (DNA vaccination (HBc or OVA) and TLR9-L 12 d later, most pronounced in HBc-vaccinated mice) was “transient rise”. For the same substance, the “serum HBeAg levels” value in data set [2] (HBc-DNA vaccination in combination with TLR9-L, after 28 d) is on record as “significant downregulation”. Further, the “HBV-infected (HBcore-Ag-positive) hepatocytes” value in data set [2] (HBc-DNA vaccination in combination with TLR9-L, d42) is given as “elimination”. Also, in data set [2] (HBc-DNA vaccination plus TLR9-L), the “PD1 expression on recently activated CD69+ HBcore-specific CTLs” value is recorded as “lower expression levels”. For the same substance, in data set [2] (setting [7]), the “IFNgamma expression of HBcore-specific CTLs upon antigen-specific restimulation ex vivo” value is “functional and expressed IFNγ”; the “expansion of HBc-specific CTLs in livers” value is on record as “pronounced expansion”. In data set [2] (mice with chronic AdHBV infection), the iMATE formation result is “induced iMATE formation”. Further, the “proliferation of adoptively transferred TEM in the liver” value in data set [3] was “marked proliferation”. In addition, the “proliferation of adoptively transferred TCM in the liver” value in data set [3] (cells in S and G2-M phase) was “strong proliferation”. In addition, the “expansion of CTLs locally in the liver” value in data set [4] (CTLs activated in vitro through TCR, CD28 and IL-12, with systemic TLR9-L) worked out at 50 fold. Further, the autoimmunity result in data set [4] (single TLR9-L application) is given as “did not trigger autoimmunity”. Moreover, in data set [5] (AdLG-infected mice (no OVA antigen), 1x10^5 activated OT-I CTLs plus TLR9-L), the “numbers of hepatic OT-I CTLs” value is recorded as “increase”. Further, the “further expansion of OT-I CTLs” value in data set [5] (AdLGO-infected TLR9-L-injected mice, compared with AdLG-infected mice given TLR9-L) amounted to 7 fold. Moreover, the “formation of iMATEs” value in data set [5] (upon TLR9-L injection in adenovirus-infected mice) is listed as “further improved”. Also, the “in vivo bioluminescence (hepatic viral luciferase expression)” value in data set [6] (TLR9-L application alone, mice infected with 10^6 ifu AdLOG) is “did not significantly reduce”. Besides, in data set [6] (transfer of 10^4 OT-I CTLs together with TLR9-L, 10^6 ifu AdLOG), the “time to efficient control of hepatic viral luciferase expression” value was no more than 4 days.
